The text below walks through data of US20030129678A1, “Methods, pharmaceutical formulations and kits for identification of subjects at risk for cancer” (priority 1999, published 2003).

Series [1] concerns LNCaP prostate carcinoma cells. Conditions: cited from earlier work.
A further series has as its system Nb2 lymphoma. Conditions: cited from earlier work.
A further series concerns K-562 leukemia. Conditions: cited from earlier work.
Series [2] has as its system normal murine bone marrow cells. Conditions: cited from earlier work.
The target of a further series is T1, A1 adenosine receptors (Mus musculus, UniProt Q60612).
T1 sequence (Q60612 1-326): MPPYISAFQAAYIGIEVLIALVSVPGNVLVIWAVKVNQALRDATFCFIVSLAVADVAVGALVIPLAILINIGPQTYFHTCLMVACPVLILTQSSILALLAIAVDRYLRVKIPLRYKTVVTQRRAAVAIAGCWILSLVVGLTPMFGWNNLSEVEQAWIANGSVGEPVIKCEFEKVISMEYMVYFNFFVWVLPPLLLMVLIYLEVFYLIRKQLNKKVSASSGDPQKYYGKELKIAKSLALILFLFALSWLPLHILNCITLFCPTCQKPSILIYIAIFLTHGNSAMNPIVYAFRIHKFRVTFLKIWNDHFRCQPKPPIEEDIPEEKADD
The experiment in a line: Competition experiments  against 125I-BWA844U in macrophage membranes. It counts as binding. The protocol:
Non-specific binding is determined in presence of 1 mM theophylline. Membrane bound radioactivity is separated by filtration over a cell harvester. The data is analyzed by non-linear regression analysis using GraphPad prism software and the Ki value is calculated.

A further series relates to TNF-α. The experiment in a line: Functional experiments: TNF-α release from macrophages (ELISA). It counts as cell-based, mouse. The protocol: Macrophages are then challenged with 1 μM PMA in the above medium for 2 hours and then stimulated with different concentrations of (0-1 μM) of 2-chloro-N^6-cyclopentyl adenosine (CCPA) at 37° C. for 1-6 hours. The supernatant is collected and the TNF-α levels are estimated by commercially available ELISA kits (R & D Systems, Minneapolis, Minn.).

Series [3] addresses T2, A1 adenosine receptor expression (Homo sapiens, UniProt P30542).
T2 construct: This same protocol is repeated using membranes from human macrophages (SC cells)
T2 sequence (P30542 1-326): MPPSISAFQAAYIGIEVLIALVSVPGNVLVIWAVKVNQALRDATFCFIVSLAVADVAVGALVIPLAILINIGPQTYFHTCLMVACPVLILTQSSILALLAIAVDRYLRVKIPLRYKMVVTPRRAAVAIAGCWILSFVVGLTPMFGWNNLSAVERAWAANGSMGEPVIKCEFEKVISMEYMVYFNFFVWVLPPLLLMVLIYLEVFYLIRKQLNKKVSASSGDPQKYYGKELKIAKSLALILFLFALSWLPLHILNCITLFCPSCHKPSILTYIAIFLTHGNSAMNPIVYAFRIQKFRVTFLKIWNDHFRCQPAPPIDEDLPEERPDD
The series can be described thus: Saturation binding in human macrophages (SC) after cisplatin treatment. It counts as cell-based. Conditions: human macrophages (SC, ATCC); cisplatin 2.5 μM for 24 hours. The procedure: Incubation of the macrophage fractions with the A1 adenosine receptor ligand ^125I-BWA844U (see Patel et al., J. Pharmacol. Exp. Ther. 33:585 (1988) in concentrations ranging from 1.25-20 nM was carried out at 37° C. for 1 hour. Non-specific binding is determined in the presence of 1 mM theophylline. Following incubation, membrane bound radioactivity is separated by filtration over a cell harvester and counted in a gamma counter. The data is analyzed by non-linear regression using GraphPad Prism software. Thc Bmax and kd values are calculated from the analyzed data.
This same protocol is repeated using membranes from human macrophages (SC cells).

In series [4] the test system is mouse B-16 melanoma cells. The series can be described thus: In vitro cytotoxicity (51Cr release), primed and activated mouse macrophages against B-16 melanoma cells. Conditions: priming with PMA (1 μm), activation with CCPA (lam).
Method: (§1) B-16 melanoma cells are washed with serum free RPMI medium by centrifugation. 25-30 μCi of Na ^51Cr is diluted to 1 ml of RPMI and transferred to the melanoma cells suspension. The melanoma cells are incubated with Na ^51Cr at 37° C. for 1 hour. The unincorporated radioactivity is removed by centrifugation at 1000×g for 10 minutes. The melanoma cells are allowed to leak for 2 hours and then washed again. The final suspension is diluted in RPMI. The cell number is counted in a hemocytometer.
(§2) Macrophages are washed with medium containing 100 mM MgCl2, 2 U/ml adenosine deaminase and 10% fetal bovine serum. Macrophages are then challenged with 1 μM PMA in the above medium for 2 hours and then stimulated with different concentrations of (0-1 μM) of 2-chloro-N^6-cyclopentyl adenosine (CCPA) for 30 minutes. The macrophages are then incubated with ^51Cr-labelled B-16 melanoma cells at a ratio of 20:1. Six hours later, a fraction of the supernatant is aspirated and counted in a gamma counter.
(§3) Total releasable counts are measured by lysing the melanoma cells in hypotonic medium.
(§4) The results are expressed as percentage (%) ^51Cr release as follows: [formula]
Percentage ^51 Cr release is a measure of the lysing of cells (i.e., killing of cells), and is therefore an indicia of cytotoxicity.
Series [5] has as its system A375 human melanoma tumor cells. The experiment in a line: In vitro cytotoxicity (51Cr release), primed and activated human macrophages against A375 cells. Conditions: human macrophages (SC hematopoietic cell line and a healthy volunteer); priming with PMA (1 μm), activation with CCPA (1 μm).
Method: as §1, §2, §3, §4
Series [6] concerns mouse P815 mastocytoma tumor cells. The experiment in a line: In vitro cytotoxicity (51Cr release), primed and activated mouse macrophages against P815 cells. Conditions: mouse macrophages (IC-21); priming with PMA (1 μM), activation with CCPA (1 μM).
Method: as §1, §2, §3, §4
This same protocol is repeated, except that P815 mouse mastocytoma tumor cells are used instead of the B-16 melanoma cells.

Turning to `Nc1ncnc2c1ncn2[C@@H]1O[C@H](CO)[C@@H](O)[C@H]1O` [adenosine], the tumor cell growth result (in series [1]; with Nb2 lymphoma; with K-562 leukemia) was “inhibits tumor cell growth” in each case. For the same compound, in [2], the proliferation entry was “stimulating proliferation”.
“MCP-1: human recombinant monocyte chemotactic protein, chemoattractive for monocytes”: the “affinity (Ki) in membranes from WBC264-9C macrophages compared with IC-21 macrophages” value with A1 adenosine receptors (competition with 0.1-0.2 nM 125I-BWA844U) is recorded as “lower”.
Consider `N.N.[Cl][Pt][Cl]` [cisplatin], for which the “effect of pretreatment on TNF-α release from WBC264-9C macrophages” value in the series with TNF-α (cisplatin 2.5 μM for 24 hours, then PMA and CCPA) is given as “increases TNF-α release”. Moreover, on A1 adenosine receptors (cisplatin 2.5 μM for 24 hours), the “effect of pretreatment on affinity of WBC264-9C macrophage membranes for MCP-1” value is reported as “increases the affinity”. Also, the “increase of A1 adenosine receptor expression (Bmax)” value in [3] is on record as “approximately three-fold”.
As to `OC[C@H]1O[C@@H](n2cnc3c(NC4CCCC4)nc(Cl)nc32)[C@H](O)[C@@H]1O` [CCPA, 2-chloro-N^6-cyclopentyladenosine], the “TNF-α release in WBC264-9C macrophages compared with IC-21 macrophages” value in the series with TNF-α (priming with PMA 1 μM, activation with CCPA 0-1 μM, 1-6 hours) is given as “lower”. Moreover, the “cytotoxicity of mouse B-16 melanoma cells” value in series [4] (macrophages from LPS-resistant mice (WBC264-9C, ATCC)) is recorded as 20%; in series [4] (macrophages from LPS-sensitive mice (IC-21, ATCC)), 50%. In [5], the “cytotoxicity to A375 human melanoma tumor cells” value was “cytotoxic”. Further, the “cytotoxicity for mouse P815 mastocytoma tumor cells” value in series [6] is reported as “cytotoxic”.
